In US7101911B2, “Tryptase inhibitors” (Altana Pharma AG, priority 2001, dated 2006):
Where a name gives a salt, the structure may show the parent alone.

Biological target: human tryptase
Experiment: Inhibition of human tryptase (apparent dissociation constant, tos-Gly-Pro-Arg-pNA cleavage)
Assay type: biochemical
Conditions: in the presence of substrate; heparin 0.1–50 μg/ml; equilibrium conditions; read-out: Kiapp (apparent dissociation constant of tryptase-inhibitor complex)
Source text: The documented pathophysiological effects of mast cell tryptase are caused directly by the enzymatic activity of the protease. Accordingly, they are reduced or blocked by inhibitors which inhibit the enzymatic activity of the tryptase. A suitable measure for the affinity of a reversible inhibitor to the target protease is the equilibrium dissociation constant Ki of the enzyme-inhibitor complex. This Ki value can be determined via the effect of the inhibitor on the tryptase-induced cleavage of a chromogenic peptide-p-nitroanilide substrate or a fluorogenic peptide-aminomethylcoumarin substrate.
The dissociation constants for the tryptase-inhibitor complexes are determined under equilibrium conditions in accordance with the general proposals of Bieth (Bieth J G, Pathophysiological interpretation of kinetic constants of protease inhibitors, Bull. Europ. Physiopath. Resp. 16:183–195, 1980) and the methods of Sommerhoff et al. (Sommerhoff C P et al., A Kazal-type inhibitor of human mast cell tryptase: isolation from the medical leech Hirudo medicinalis, characterization, and sequence analysis, Biol. Chem. Hoppe-Seyler 375: 685–694, 1994).
Human tryptase is isolated from lung tissue or prepared recombinantly; the specific activity of the protease, determined by titration, is usually greater than 85% of the theoretical value. In the presence of heparin (0.1–50 μg/ml) for stabilizing the protease, constant amounts of the tryptase are incubated with increasing amounts of the inhibitors. After an equilibrium between the reaction partners has formed, the remaining enzyme activity after addition of the peptide-p-nitroanilide substrate tos-Gly-Pro-Arg-pNA is determined and the cleavage of the latter is monitored at 405 nm for 3 min. Alternatively, the remaining enzymatic activity can also be determined using fluorogenic substrates. The apparent dissociation constants Kiapp (i.e. in the presence of substrate) are subsequently determined by adapting the enzyme rates to the general equation for reversible inhibitors (Morrison J F, Kinetics of the reversible inhibition of enzyme-catalysed reactions by tight-binding inhibitors, Biochim. Biophys. Acta 185, 269–286, 1969) using non-linear regression: V1/V0=1−{Et+It+Kiapp−[(Et+It+Kiapp)^2−4EtIt]^1/2}/2Et
V1 and V0 are the rates in the presence and absence, respectively, of the inhibitor, and Et and It are the tryptase and inhibitor concentrations, respectively.
The apparent dissociation constants determined for the compounds according to the invention are shown in Table A below, where the numbers of the compounds correspond to the numbers of the compounds in the examples.

Compound | Ki
NCc1ccc(CNC(=O)OCC#Cc2cc(C#CCOC(=O)NCc3ccc(CN)cc3)cc(CO)c2)cc1 [Compound 1, 3,5-Bis-[3-(4-aminomethylbenzylaminocarbonyloxy)prop-1-ynyl]-1-hydroxymethyl-benzene dihydrochloride] | 14 nM
COC(=O)c1cc(C#CCOC(=O)NCc2cccc(CN)c2)cc(C#CCOC(=O)NCc2cccc(CN)c2)c1 [Compound 2, Methyl 3,5-bis-[3-(3-aminomethylbenzylaminocarbonyloxy)prop-1-ynyl]benzoate dihydrochloride] | 1.6 nM
COC(=O)c1cc(C#CCOC(=O)NCc2ccc(CN)cc2)cc(C#CCOC(=O)NCc2ccc(CN)cc2)c1 [Compound 4, Methyl 3,5-bis-[3-(4-aminomethylbenzylaminocarbonyloxy)prop-1-ynyl]benzoate dihydrochloride] | 58 nM
COC(=O)c1cc(C#CCOC(=O)NCc2cccc(CN)c2)ccc1C#CCOC(=O)NCc1cccc(CN)c1 [Compound 6, Methyl 2,5-bis-[3-(3-aminomethylbenzylaminocarbonyloxy)prop-1-ynyl]benzoate dihydrochloride] | 0.3 nM

The remaining compounds from weak to strong by Ki, led by results:

Ki | Compound
250 nM | NCc1ccc(CNC(=O)OCC#Cc2cc(C#CCOC(=O)NCc3ccc(CN)cc3)cc(C(=O)O)c2)cc1 [Compound 5, 3,5-Bis-[3-(4-aminomethylbenzylaminocarbonyloxy)prop-1-ynyl]benzoic acid dihydrochloride]
40 nM | NCc1cccc(CNC(=O)OCC#Cc2cc(C#CCOC(=O)NCc3cccc(CN)c3)cc(C(=O)O)c2)c1 [Compound 3, 3,5-Bis-[3-(3-aminomethylbenzylaminocarbonyloxy)prop-1-ynyl]benzoic acid dihydrochloride]
8.6 nM | NCc1cccc(CNC(=O)OCC#Cc2ccc(C#CCOC(=O)NCc3cccc(CN)c3)c(C(=O)O)c2)c1 [Compound 7, 2,5-Bis-[3-(3-aminomethylbenzylaminocarbonyloxy)prop-1-ynyl]benzoic acid dihydrochloride]
6 nM | CCOC(=O)c1cc(OCC#CCOC(=O)NCc2cccc(CN)c2)c(C(=O)OCC)cc1OCC#CCOC(=O)NCc1cccc(CN)c1 [Compound 9, Diethyl 2,5-bis-[4-(3-aminomethylbenzylaminocarbonyloxy)but-2-ynyl-1-oxy]terephthalate dihydrochloride]
2.3 nM | COC(=O)c1cc(C#CCOC(=O)NCc2cccc(CN)c2)c(C(=O)OC)cc1C#CCOC(=O)NCc1cccc(CN)c1 [Compound 8, Dimethyl 2,5-bis-[3-(3-aminomethylbenzylaminocarbonyloxy)prop-1-ynyl]terephthalate dihydrochloride]
